Target: T1, mGluR2 (Homo sapiens, UniProt Q14416)
T1 construct: expressed in transfected cells
Assay: [3H]LY341495 binding displacement at mGluR2
Conditions: radioligand [3H]LY341495, cells expressing human mGluR subtypes, read-out: Ki for reversal of [3 H] LY341495 binding
Excerpt: (D. D. Schoepp, et al., Neuropharmacol., 1996, 35, 1661-1672 and 1997, 36, 111).
(LY341495 is described in Ornstein et al., J. Med. Chem., 1998, 41, 346-357 and J. Med. Chem., 1998, 41, 358 to 378).

T1 sequence (Q14416 19-872): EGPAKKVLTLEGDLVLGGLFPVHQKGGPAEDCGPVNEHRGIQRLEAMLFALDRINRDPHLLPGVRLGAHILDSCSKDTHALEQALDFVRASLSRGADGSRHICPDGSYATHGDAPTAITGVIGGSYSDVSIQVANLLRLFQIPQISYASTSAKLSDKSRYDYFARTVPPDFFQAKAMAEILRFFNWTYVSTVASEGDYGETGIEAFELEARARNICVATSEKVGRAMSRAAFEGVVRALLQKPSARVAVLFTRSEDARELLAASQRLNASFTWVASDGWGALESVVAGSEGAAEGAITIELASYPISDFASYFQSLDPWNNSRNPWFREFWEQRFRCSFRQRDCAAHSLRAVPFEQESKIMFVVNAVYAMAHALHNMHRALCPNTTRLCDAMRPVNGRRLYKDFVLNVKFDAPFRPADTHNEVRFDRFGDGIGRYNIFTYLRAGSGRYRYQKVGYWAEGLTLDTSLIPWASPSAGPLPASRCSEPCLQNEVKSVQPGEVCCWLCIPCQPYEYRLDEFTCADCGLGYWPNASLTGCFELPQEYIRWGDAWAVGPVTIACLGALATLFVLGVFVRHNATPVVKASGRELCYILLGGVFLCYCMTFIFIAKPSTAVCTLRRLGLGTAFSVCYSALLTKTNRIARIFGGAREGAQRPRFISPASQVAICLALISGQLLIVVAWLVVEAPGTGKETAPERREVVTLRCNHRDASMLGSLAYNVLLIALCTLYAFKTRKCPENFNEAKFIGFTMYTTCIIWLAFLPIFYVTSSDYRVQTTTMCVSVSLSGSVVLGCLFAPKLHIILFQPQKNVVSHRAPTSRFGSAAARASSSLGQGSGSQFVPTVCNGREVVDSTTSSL

Structure (SMILES)	Ki [nM]
C[C@@H]1[C@H](C(=O)O)[C@H]1[C@H](N)C(=O)O [(2S,1′S,2′S,3′S)-2′-carboxy-3′methylcyclopropylglycine]	2640
C[C@H]1[C@H](C(=O)O)[C@H]1[C@H](N)C(=O)O [Example 1, (2S,1′S,2′S,3′R)-2-(3′-Methyl-2′-carboxycyclopropyl)glycine]	100

From patent US6504052B1, “Excitatory amino acid receptor modulators” (Eli Lilly and Company, priority 1999, dated 2003)
